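Method: 48-hour compound exposure of cells in 96-well plates, five concentrations, linear interpolation of endpoints. TGI denotes the concentration required for complete inhibition of growth.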
Assays:
Experiment in all cases: NCI tumour cell line growth inhibition, 48 h
786-0 renal = tested on: 786-0 renal
A498 renal = tested on: A498 renal
A549 NSCLC = tested on: A549 NSCLC
ACHN renal = tested on: ACHN renal
CCRF-CEM leukemia = tested on: CCRF-CEM leukemia
COLO 205 colon = tested on: COLO 205 colon
DLD-1 colon = tested on: DLD-1 colon
DMS 114 small cell lung = tested on: DMS 114 small cell lung
DMS 273 small cell lung = tested on: DMS 273 small cell lung
EKVX NSCLC = tested on: EKVX NSCLC
HCT-116 colon = tested on: HCT-116 colon
HCT-15 colon = tested on: HCT-15 colon
HOP-18 NSCLC = tested on: HOP-18 NSCLC
HOP-62 NSCLC = tested on: HOP-62 NSCLC
HOP-92 NSCLC = tested on: HOP-92 NSCLC
IGROV1 ovarian = tested on: IGROV1 ovarian
K-562 leukemia = tested on: K-562 leukemia
KM20L2 colon = tested on: KM20L2 colon
LOX IMVI melanoma = tested on: LOX IMVI melanoma
LXFL 529 NSCLC = tested on: LXFL 529 NSCLC
M14 melanoma = tested on: M14 melanoma
M19-MEL melanoma = tested on: M19-MEL melanoma
MALME-3M melanoma = tested on: MALME-3M melanoma
MOLT-4 leukemia = tested on: MOLT-4 leukemia
NCI-H226 lung = tested on: NCI-H226 lung
NCI-H23 lung = tested on: NCI-H23 lung
NCI-H460 lung = tested on: NCI-H460 lung
NCI-H522 lung = tested on: NCI-H522 lung
OVCAR-3 ovarian = tested on: OVCAR-3 ovarian
OVCAR-4 ovarian = tested on: OVCAR-4 ovarian
OVCAR-5 ovarian = tested on: OVCAR-5 ovarian
OVCAR-8 ovarian = tested on: OVCAR-8 ovarian
RPMI-8226 leukemia = tested on: RPMI-8226 leukemia
RXF 393 renal = tested on: RXF 393 renal
RXF-631 renal = tested on: RXF-631 renal
SF-268 CNS = tested on: SF-268 CNS
SF-295 CNS = tested on: SF-295 CNS
SF-539 CNS = tested on: SF-539 CNS
SK-MEL-2 melanoma = tested on: SK-MEL-2 melanoma
SK-MEL-28 melanoma = tested on: SK-MEL-28 melanoma
SK-OV-3 ovarian = tested on: SK-OV-3 ovarian
SN12C renal = tested on: SN12C renal
SNB-19 CNS = tested on: SNB-19 CNS
SNB-75 CNS = tested on: SNB-75 CNS
SNB-78 CNS = tested on: SNB-78 CNS
SW-620 colon = tested on: SW-620 colon
TK-10 renal = tested on: TK-10 renal
U251 CNS = tested on: U251 CNS
UACC-62 melanoma = tested on: UACC-62 melanoma
UO-31 renal = tested on: UO-31 renal
XF 498 CNS = tested on: XF 498 CNS
CAKI-1 renal = tested on: CAKI-1 renal
HCC-2998 colon = tested on: HCC-2998 colon
HL-60(TB) leukemia = tested on: HL-60(TB) leukemia
HT29 colon = tested on: HT29 colon
KM12 colon = tested on: KM12 colon
MCF7 breast = tested on: MCF7 breast
NCI/ADR-RES ovarian = tested on: NCI/ADR-RES ovarian
P388 leukemia = tested on: P388 leukemia
P388/ADR leukemia = tested on: P388/ADR leukemia
SK-MEL-5 melanoma = tested on: SK-MEL-5 melanoma
SN12K1 renal = tested on: SN12K1 renal
UACC-257 melanoma = tested on: UACC-257 melanoma

Cc1n[nH]c(=S)n(C)c1=S
TGI (786-0 renal): > 100 µM | TGI (A498 renal): > 100 µM | TGI (A549 NSCLC): > 100 µM | TGI (ACHN renal): > 100 µM | TGI (CCRF-CEM leukemia): > 100 µM | TGI (COLO 205 colon): > 100 µM | TGI (DLD-1 colon): > 100 µM | TGI (DMS 114 small cell lung): > 100 µM | TGI (DMS 273 small cell lung): > 100 µM | TGI (EKVX NSCLC): > 100 µM | TGI (HCT-116 colon): > 100 µM | TGI (HCT-15 colon): > 100 µM | TGI (HOP-18 NSCLC): > 100 µM | TGI (HOP-62 NSCLC): > 100 µM | TGI (HOP-92 NSCLC): > 100 µM | TGI (IGROV1 ovarian): > 100 µM | TGI (K-562 leukemia): > 100 µM | TGI (KM20L2 colon): > 100 µM | TGI (LOX IMVI melanoma): > 100 µM | TGI (LXFL 529 NSCLC): > 100 µM | TGI (M14 melanoma): > 100 µM | TGI (M19-MEL melanoma): > 100 µM | TGI (MALME-3M melanoma): > 100 µM | TGI (MOLT-4 leukemia): > 100 µM | TGI (NCI-H226 lung): > 100 µM | TGI (NCI-H23 lung): > 100 µM | TGI (NCI-H460 lung): > 100 µM | TGI (NCI-H522 lung): > 100 µM | TGI (OVCAR-3 ovarian): > 100 µM | TGI (OVCAR-4 ovarian): > 100 µM | TGI (OVCAR-5 ovarian): > 100 µM | TGI (OVCAR-8 ovarian): > 100 µM | TGI (RPMI-8226 leukemia): > 100 µM | TGI (RXF 393 renal): > 100 µM | TGI (RXF-631 renal): > 100 µM | TGI (SF-268 CNS): > 100 µM | TGI (SF-295 CNS): > 100 µM | TGI (SF-539 CNS): > 100 µM | TGI (SK-MEL-2 melanoma): > 100 µM | TGI (SK-MEL-28 melanoma): > 100 µM | TGI (SK-OV-3 ovarian): > 100 µM | TGI (SN12C renal): > 100 µM | TGI (SNB-19 CNS): > 100 µM | TGI (SNB-75 CNS): > 100 µM | TGI (SNB-78 CNS): > 100 µM | TGI (SW-620 colon): > 100 µM | TGI (TK-10 renal): > 100 µM | TGI (U251 CNS): > 100 µM | TGI (UACC-62 melanoma): > 100 µM | TGI (UO-31 renal): > 100 µM | TGI (XF 498 CNS): > 100 µM

COc1cc(C2c3cc4c(cc3[C@@H](Nc3cccc(CO)c3)C3COC(=O)[C@H]23)OCO4)cc(OC)c1O (stereo not given in full)
TGI (A498 renal): 1.77 µM | TGI (A549 NSCLC): 1.96 µM | TGI (CAKI-1 renal): 1.91 µM | TGI (CCRF-CEM leukemia): 0.732 µM | TGI (COLO 205 colon): 3.72 µM | TGI (DLD-1 colon): 4.56 µM | TGI (DMS 114 small cell lung): 3.82 µM | TGI (DMS 273 small cell lung): 1.76 µM | TGI (EKVX NSCLC): 19.8 µM | TGI (HCC-2998 colon): 3.79 µM | TGI (HCT-116 colon): 11.6 µM | TGI (HCT-15 colon): 2.86 µM | TGI (HL-60(TB) leukemia): 0.343 µM | TGI (HOP-18 NSCLC): 17.4 µM | TGI (HOP-62 NSCLC): 0.556 µM | TGI (HOP-92 NSCLC): 13.3 µM | TGI (HT29 colon): 5.15 µM | TGI (IGROV1 ovarian): 17 µM | TGI (K-562 leukemia): 5.87 µM | TGI (KM12 colon): 6.67 µM | TGI (LOX IMVI melanoma): 3.74 µM | TGI (M19-MEL melanoma): 32.6 µM | TGI (MALME-3M melanoma): 11.4 µM | TGI (MCF7 breast): 26.3 µM | TGI (MOLT-4 leukemia): 0.185 µM | TGI (NCI-H226 lung): 1.7 µM | TGI (NCI-H23 lung): 2.77 µM | TGI (NCI-H460 lung): 1.75 µM | TGI (NCI-H522 lung): 3.52 µM | TGI (NCI/ADR-RES ovarian): 59.2 µM | TGI (OVCAR-3 ovarian): 13.4 µM | TGI (OVCAR-4 ovarian): 30.4 µM | TGI (OVCAR-5 ovarian): 11.5 µM | TGI (OVCAR-8 ovarian): 16.2 µM | TGI (P388 leukemia): 0.369 µM | TGI (P388/ADR leukemia): 1.86 µM | TGI (RPMI-8226 leukemia): 2.12 µM | TGI (RXF 393 renal): 6.05 µM | TGI (SF-268 CNS): 14.5 µM | TGI (SF-295 CNS): 5.05 µM | TGI (SF-539 CNS): 1.99 µM | TGI (SK-MEL-2 melanoma): 6.2 µM | TGI (SK-MEL-28 melanoma): 22.7 µM | TGI (SK-MEL-5 melanoma): 2.28 µM | TGI (SK-OV-3 ovarian): 9.04 µM | TGI (SN12C renal): 6.11 µM | TGI (SN12K1 renal): 5.53 µM | TGI (SNB-19 CNS): 15.7 µM | TGI (SNB-75 CNS): > 24.7 µM | TGI (SW-620 colon): > 41.3 µM | TGI (UACC-257 melanoma): 5.04 µM | TGI (UACC-62 melanoma): 2.76 µM | TGI (UO-31 renal): 10.4 µM | TGI (XF 498 CNS): 5.63 µM
